According to ChEMBL document CHEMBL1145880, “Aryl piperazine melanocortin MC4 receptor agonists” (Bioorg Med Chem Lett, 2003):

Key:
[1] = target: T1, Melanocortin receptor 4 (Homo sapiens, UniProt P32245); test: cAMP accumulation in HEK cells transfected with human Melanocortin 4 receptor (hMC4R) with respect to alpha-MSH; assay type: functional, cell-based; conditions: HEK293
[2] = target: T1, Melanocortin receptor 4; test: cAMP accumulation in HEK cells transfected with human melanocortin 4 receptor (hMC4R) with respect to alpha-MSH; assay type: functional, cell-based; conditions: HEK293
[3] = target: T1, Melanocortin receptor 4; test: Agonistic activity measured as […] cAMP accumulation in HEK cells expressing human Melanocortin 4 receptor (hMC4R); assay type: functional, cell-based, HEK293
[4] = target: Melanocortin receptor 5 (Homo sapiens, UniProt P33032); test: In vitro cAMP accumulation in HEK cells transfected with human Melanocortin 5 receptor (hMC5R); assay type: functional, cell-based, HEK293
[5] = target: Melanocortin receptor 4 (Mus musculus, UniProt P56450); test: In vitro cAMP accumulation in Y1 cells transfected with mouse Melanocortin 4 receptor (mMC4R); assay type: functional, cell-based
[6] = target: Adrenocorticotropic hormone receptor (Mus musculus, UniProt Q64326); test: In vitro cAMP accumulation in Y1 cells transfected with mouse Melanocortin 2 receptor (mMC2R); assay type: functional, cell-based
[7] = target: Melanocortin receptor 3 (Homo sapiens, UniProt P41968); test: In vitro cAMP accumulation in HEK cells transfected with human Melanocortin 3 receptor (hMC3R); assay type: functional, cell-based, HEK293
[8] = target: Melanocyte-stimulating hormone receptor (Homo sapiens, UniProt Q01726); test: In vitro cAMP accumulation in HEK cells transfected with human Melanocortin 1 receptor (hMC1R); assay type: functional, cell-based, HEK293
Chain of Melanocyte-stimulating hormone receptor (Q01726 whole entry): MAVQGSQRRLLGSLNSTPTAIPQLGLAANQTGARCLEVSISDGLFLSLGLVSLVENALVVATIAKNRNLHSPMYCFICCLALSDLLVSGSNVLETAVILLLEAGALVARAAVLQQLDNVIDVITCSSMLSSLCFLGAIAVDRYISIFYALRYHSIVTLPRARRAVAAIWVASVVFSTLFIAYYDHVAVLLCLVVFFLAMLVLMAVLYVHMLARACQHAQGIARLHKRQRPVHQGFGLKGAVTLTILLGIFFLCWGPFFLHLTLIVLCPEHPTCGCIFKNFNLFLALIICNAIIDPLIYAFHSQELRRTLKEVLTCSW

Chain of Melanocortin receptor 4 (Mus musculus, UniProt P56450) (P56450 whole entry): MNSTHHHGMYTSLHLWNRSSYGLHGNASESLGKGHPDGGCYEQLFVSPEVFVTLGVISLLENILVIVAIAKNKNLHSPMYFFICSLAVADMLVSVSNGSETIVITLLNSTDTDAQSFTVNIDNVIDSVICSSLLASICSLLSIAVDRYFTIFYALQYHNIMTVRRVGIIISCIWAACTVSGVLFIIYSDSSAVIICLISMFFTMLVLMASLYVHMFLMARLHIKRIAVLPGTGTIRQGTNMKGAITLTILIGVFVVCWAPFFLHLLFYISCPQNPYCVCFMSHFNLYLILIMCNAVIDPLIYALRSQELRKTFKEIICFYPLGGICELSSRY
Chain of Adrenocorticotropic hormone receptor (Q64326 whole entry): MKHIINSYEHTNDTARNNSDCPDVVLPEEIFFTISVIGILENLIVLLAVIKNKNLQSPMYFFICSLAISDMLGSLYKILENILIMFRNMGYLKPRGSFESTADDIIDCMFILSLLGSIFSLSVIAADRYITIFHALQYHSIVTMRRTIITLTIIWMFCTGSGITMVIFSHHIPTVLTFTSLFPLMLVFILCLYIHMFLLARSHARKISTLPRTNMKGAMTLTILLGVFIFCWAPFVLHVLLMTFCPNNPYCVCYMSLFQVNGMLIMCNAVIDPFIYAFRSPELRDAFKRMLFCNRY
Chain of Melanocortin receptor 5 (P33032 whole entry): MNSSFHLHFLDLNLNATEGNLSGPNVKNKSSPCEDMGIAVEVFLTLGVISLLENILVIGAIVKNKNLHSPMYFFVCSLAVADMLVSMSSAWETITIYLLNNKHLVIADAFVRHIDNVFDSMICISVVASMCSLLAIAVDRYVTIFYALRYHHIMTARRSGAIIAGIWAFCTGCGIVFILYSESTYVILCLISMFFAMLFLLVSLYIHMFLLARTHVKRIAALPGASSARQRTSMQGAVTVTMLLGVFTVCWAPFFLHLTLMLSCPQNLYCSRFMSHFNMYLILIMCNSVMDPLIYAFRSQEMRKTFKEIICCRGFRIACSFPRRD
T1 sequence (P32245 whole entry): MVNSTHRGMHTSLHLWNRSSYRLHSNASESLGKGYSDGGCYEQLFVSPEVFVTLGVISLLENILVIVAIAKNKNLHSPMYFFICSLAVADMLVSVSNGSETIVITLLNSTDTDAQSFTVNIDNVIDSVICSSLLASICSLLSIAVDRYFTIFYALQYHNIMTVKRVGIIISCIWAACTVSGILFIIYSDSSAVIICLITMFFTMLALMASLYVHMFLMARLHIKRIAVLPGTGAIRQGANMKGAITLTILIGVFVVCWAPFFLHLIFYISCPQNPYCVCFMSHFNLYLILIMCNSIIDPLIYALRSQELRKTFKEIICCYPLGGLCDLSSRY
Chain of Melanocortin receptor 3 (P41968 whole entry): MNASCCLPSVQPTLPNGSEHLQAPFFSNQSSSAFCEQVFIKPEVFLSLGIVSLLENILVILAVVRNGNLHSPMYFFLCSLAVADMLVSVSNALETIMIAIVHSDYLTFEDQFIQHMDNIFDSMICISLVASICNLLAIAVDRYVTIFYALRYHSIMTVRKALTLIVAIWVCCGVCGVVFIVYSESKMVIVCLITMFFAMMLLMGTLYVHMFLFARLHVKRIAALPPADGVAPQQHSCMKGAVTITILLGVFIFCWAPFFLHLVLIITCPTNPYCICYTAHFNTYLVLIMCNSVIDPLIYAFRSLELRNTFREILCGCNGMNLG

Stimulation [2] | EC50 [3] | SMILES | also measured
– | – | O=C(Nc1ccccc1N1CCN(C(=O)[C@@H](Cc2ccc(Cl)cc2)NC(=O)[C@H]2Cc3ccccc3CN2)CC1)C1CC1 | Fold stimulation [1]: 21%
100% | 2.2 µM | CCC(CC)N(Cc1ccccc1N1CCN(C(=O)[C@@H](Cc2ccc(Cl)cc2)NC(=O)[C@H]2Cc3ccccc3CN2)CC1)S(C)(=O)=O | –
100% | 0.19 µM | CS(=O)(=O)N1CC2(CCN(C(=O)[C@@H](Cc3ccc(Cl)cc3)NC(=O)[C@H]3Cc4ccccc4CN3)CC2)c2ccccc21 | –
100% | 0.17 µM | O=C(N[C@H](Cc1ccc(Cl)cc1)C(=O)N1CCN(c2c(Cn3cncn3)ccc3ccccc23)CC1)[C@H]1Cc2ccccc2CN1 | –
34% | 0.6 µM | COCC(=O)Nc1ccccc1N1CCN(C(=O)[C@@H](Cc2ccc(Cl)cc2)NC(=O)[C@H]2Cc3ccccc3CN2)CC1 | –
100% | 0.38 µM | CC(C)CN(Cc1ccccc1N1CCN(C(=O)[C@@H](Cc2ccc(Cl)cc2)NC(=O)[C@H]2Cc3ccccc3CN2)CC1)S(C)(=O)=O | –
100% | 1 µM | CCC(C)N(Cc1ccccc1N1CCN(C(=O)[C@@H](Cc2ccc(Cl)cc2)NC(=O)[C@H]2Cc3ccccc3CN2)CC1)S(C)(=O)=O (stereo partly drawn) | –
100% | – | O=C(N[C@H](Cc1ccc(Cl)cc1)C(=O)N1CCC(Cn2cncn2)(C2CCCCC2)CC1)[C@H]1Cc2ccccc2CN1 | EC50 [4]: 2.7 µM; EC50 [5]: 0.0076 µM; EC50 [6]: > 10 µM
100% | 0.68 µM | O=C(N[C@H](Cc1ccc(Cl)cc1)C(=O)N1CCN(c2ccc(C(F)(F)F)cc2Cn2cncn2)CC1)[C@H]1Cc2ccccc2CN1 | –
– | – | CN(C)C(=O)Nc1ccccc1N1CCN(C(=O)[C@@H](Cc2ccc(Cl)cc2)NC(=O)[C@H]2Cc3ccccc3CN2)CC1 | Fold stimulation [1]: 7%
– | – | O=C(Nc1ccccc1N1CCN(C(=O)[C@@H](Cc2ccc(Cl)cc2)NC(=O)[C@H]2Cc3ccccc3CN2)CC1)c1ccncc1 | Fold stimulation [1]: 30%
55% | 1.6 µM | COC(=O)C(=O)Nc1ccccc1N1CCN(C(=O)[C@@H](Cc2ccc(Cl)cc2)NC(=O)[C@H]2Cc3ccccc3CN2)CC1 | –
100% | 0.11 µM | COc1ccc(Cn2cncn2)c(N2CCN(C(=O)[C@@H](Cc3ccc(Cl)cc3)NC(=O)[C@H]3Cc4ccccc4CN3)CC2)c1 | –
100% | 0.52 µM | CN(c1ccccc1N1CCN(C(=O)[C@@H](Cc2ccc(Cl)cc2)NC(=O)[C@H]2Cc3ccccc3CN2)CC1)S(C)(=O)=O | –
100% | 0.024 µM | O=C(N[C@H](Cc1ccc(Cl)cc1)C(=O)N1CCN(c2ccccc2Cn2cnnc2)CC1)[C@H]1Cc2ccccc2CN1 | EC50 [4]: > 3 µM; EC50 [5]: 0.038 µM; EC50 [6]: > 10 µM; EC50 [7]: > 3 µM; EC50 [8]: > 3 µM
100% | 2.4 µM | CC(C)(C)CN(Cc1ccccc1N1CCN(C(=O)[C@@H](Cc2ccc(Cl)cc2)NC(=O)[C@H]2Cc3ccccc3CN2)CC1)S(C)(=O)=O | –
100% | 0.38 µM | CS(=O)(=O)Nc1ccccc1N1CCN(C(=O)[C@@H](Cc2ccc(Cl)cc2)NC(=O)[C@H]2Cc3ccccc3CN2)CC1 | –
70% | 0.47 µM | O=C(N[C@H](Cc1ccc(Cl)cc1)C(=O)N1CCN(c2cccc(Cl)c2Cn2cncn2)CC1)[C@H]1Cc2ccccc2CN1 | –
100% | 0.69 µM | CCN(Cc1ccccc1N1CCN(C(=O)[C@@H](Cc2ccc(Cl)cc2)NC(=O)[C@H]2Cc3ccccc3CN2)CC1)S(C)(=O)=O | –
64% | 1.9 µM | CC(=O)Nc1ccccc1N1CCN(C(=O)[C@@H](Cc2ccc(Cl)cc2)NC(=O)[C@H]2Cc3ccccc3CN2)CC1 | –
34% | 4.4 µM | O=C(N[C@H](Cc1ccc(Cl)cc1)C(=O)N1CCN(c2ccccc2NS(=O)(=O)C(F)(F)F)CC1)[C@H]1Cc2ccccc2CN1 | –
24% | 0.65 µM | CCOC(=O)NC(=O)Nc1ccccc1N1CCN(C(=O)[C@@H](Cc2ccc(Cl)cc2)NC(=O)[C@H]2Cc3ccccc3CN2)CC1 | –
85% | 0.44 µM | CC(C)S(=O)(=O)Nc1ccccc1N1CCN(C(=O)[C@@H](Cc2ccc(Cl)cc2)NC(=O)[C@H]2Cc3ccccc3CN2)CC1 | –
100% | 0.08 µM | O=C(N[C@H](Cc1ccc(Cl)cc1)C(=O)N1CCN(c2ccccc2Cn2cncn2)CC1)[C@H]1Cc2ccccc2CN1 | EC50 [4]: > 3 µM; EC50 [5]: 0.059 µM; EC50 [6]: > 10 µM; EC50 [7]: > 3 µM; EC50 [8]: > 3 µM
83% | 1.1 µM | O=C(Nc1ccccc1N1CCN(C(=O)[C@@H](Cc2ccc(Cl)cc2)NC(=O)[C@H]2Cc3ccccc3CN2)CC1)c1cccnc1 | –
62% | 1 µM | O=C(NCc1ccccc1)Nc1ccccc1N1CCN(C(=O)[C@@H](Cc2ccc(Cl)cc2)NC(=O)[C@H]2Cc3ccccc3CN2)CC1 | –
68% | 2.1 µM | CCOC(=O)CNC(=O)Nc1ccccc1N1CCN(C(=O)[C@@H](Cc2ccc(Cl)cc2)NC(=O)[C@H]2Cc3ccccc3CN2)CC1 | –
